Test results taken from patent US8273724B2, “Melanoma antigens and their use in diagnostic and therapeutic methods” (The United States of America, as represented by the …, priority 1994, dated 2012).
Values belong to the molecule of their own block, whether it stands above or below them. Where a SMILES comes first, the peptide text is derived from it.

Key:
T2 cells = assay: Induction of peptide specific CTL from PBL, 51Cr release against T2 cells with or without peptide (Example 5); format: cell-based, human; conditions: E:T = 3D40:1
Procedure: (§1) Induction of peptide specific CTL PBMC were separated from peripheral blood of HLA-A2+ melanoma patients and normal donors by centrifugation on Ficoll-Hypaque gradients and used as fresh or cryopreserved samples. […] Two days later, 12 IU/ml interleukin 2 (IL-2) (Chiron Co., Emeryville, Calif.) were added to the cultures. Lymphocytes were then restimulated weekly as follows: responder cells were harvested, washed once and replated in 24-well plates at a concentration of 2.5×10^5 cells/ml in CM. Autologous PBMC were thawed, washed twice in PBS, resuspended at 5-8×10^6 cells/ml in CM and pulsed with 1 ug/ml peptide in 15-ml conical tubes (5 ml/tube) for 3 hours at 37° C. These PBMC (stimulators) were then irradiated at 3000 rads, washed once in PBS and added to the responder cells at responder:stimulator ratios ranging between 1:3 and 1:10. The next day, 12 IU/ml IL-2 were added to the cultures. The activity of these CTL was tested by cytotoxicity assays after at least 2 rounds (14 days) of peptide stimulation. To generate CTL from TIL cultures, the dissociated tumor suspension were cultured for 1-2 days in 10% FCS RPMI-1640 medium to allow tumor cell adherence. The lymphocytes, recovered from the non-adherent fraction, were used for the induction of peptide specific CTL as described above.
(§2) Assessment of antigen recognition by CTL. ^51Cr release cytotoxic assays were performed to detect the recognition of peptide and melanoma cells by CTL. To analyze peptide recognition, T2 cell lines were preincubated for 2 h at 37° C. with 1 ug/ml peptide, washed and used as target cells in a ^51Cr release cytotoxic assay. The melanoma lines 624mel was established in our laboratory (See Example 1).

[1] = tested on: T2 cell lines preincubated with peptide; assay: Recognition of modified peptides by natural epitope (M9-2, G9-154, G9-209, G9-280) reactive T-cells, 51Cr release on peptide-pulsed T2 cells (Example 5); format: cell-based, human
Procedure: as §2
In order to make more immunogenic peptides for induction of anti-melanoma T-cells than natural melanoma epitopes, a variety of peptides in which at least 1 amino acid was changed based on consensus motifs in peptides binding to a specific MHC Class I allele Falk, et al. (1991) Nature 351:290; Kubo et al. (1994) J. Immunol 152:3913; Parker, K. et al. (1992) Journal of Immunology 149:3580; Ruppert, J. et al. (1993) Cell 74:929-937) (Tables 14, 15, 16, and 17). […] By changing amino acid at the 1st, 2nd, 3rd or 9th positions which are important for HLA-A2 binding to the peptide, but less important for recognition by T-cell receptors, artificial peptides which can bind to HLA-A2.1 with higher affinity and still be recognized by natural epitope specific T-cells may be generated.

[2] = tested on: 624mel melanoma cell line; assay: Induction of peptide specific CTL from PBL, 51Cr release against melanoma cells (Example 5); format: cell-based, human; conditions: for % specific lysis by PBL stimulated with the peptide: target 624mel, E:T = 3D40:1; for recognition and lysis of original epitopes and melanoma tumor cells (624 mel) by PBL stimulated with the peptide, compared with natural epitopes: PBL stimulated with autologous PBMC pulsed with peptide
Procedure: as §1, §2

HLA-A2.1+ T2 cell line = assay: 51Cr release cytotoxicity assay: TIL lysis of T2 cells preincubated with synthetic MART-1 peptides (Example 2); format: cell-based, human
HLA-A2.1 = HLA-A2.1 (Homo sapiens, UniProt P04439, D140Y/D185E/D98H/E176V/E277Q/G131W/G231S/I119V/I121R/I166T/I218V/L300P/L318F/N151K/N90K/P208A/P217A/Q86G/Q94H/R138H/R169H/T345S); assay: HLA-A2.1 binding assay of modified peptides, inhibition of radiolabeled Hbc 18-27 (Example 5); conditions: for IC50: modified gp100 G9-154 peptides, read-out: Binding affinity to HLA-A2.1

- binding affinity to HLA-A2.1 compared with the natural epitope (HLA-A2.1): higher binding affinity
SMILES: CC(C)C[C@H](NC(=O)[C@@H](N)Cc1ccc(O)cc1)C(=O)N[C@@H](CCC(=O)O)C(=O)N1CCC[C@H]1C(=O)NCC(=O)N1CCC[C@H]1C(=O)N[C@H](C(=O)N[C@H](C(=O)O)[C@@H](C)O)C(C)C [G9-280-9V] (H-YLEPGPVT-OH; N-terminus and C-terminus assumed)
- % specific lysis by PBL stimulated with the peptide (T2 cells; target T2 + G9-280-9V, after 4 stimulations): 58%
- % specific lysis by PBL stimulated with the peptide (T2 cells; target T2 + G9-280, after 4 stimulations): 87%
- % specific lysis by PBL stimulated with the peptide (T2 cells; target T2, after 4 stimulations (Table 20)): 0%
- recognition by the original melanoma reactive T-cells [1]: recognized
- Recognition by G9-280 reactive T-cell ([1]; 51Cr release, T2 cells preincubated with 1 ug/ml peptide): + (+, recognized)
- recognition and lysis of original epitopes and melanoma tumor cells (624 mel) by PBL stimulated with the peptide, compared with natural epitopes [2]: better
- % specific lysis by PBL stimulated with the peptide ([2]; after 4 stimulations (Table 20)): 71%

- binding affinity to HLA-A2.1 compared with the natural epitope (HLA-A2.1): higher binding affinity
SMILES: CC(C)C[C@H](NC(=O)[C@@H](N)Cc1c[nH]c2ccccc12)C(=O)N[C@@H](CC(=O)O)C(=O)N[C@@H](CCC(N)=O)C(=O)N[C@H](C(=O)N1CCC[C@H]1C(=O)N[C@@H](Cc1ccccc1)C(=O)N[C@@H](CO)C(=O)N[C@H](C(=O)O)C(C)C)C(C)C [G9-209-1W2L]
- Recognition by G9-209 reactive T-cell [1]: + (+, recognized)
- recognition by the original melanoma reactive T-cells [1]: recognized

- binding affinity to HLA-A2.1 compared with the natural epitope (HLA-A2.1): higher binding affinity
SMILES: CC[C@H](C)[C@H](NC(=O)CNC(=O)[C@H](C)NC(=O)[C@@H](N)Cc1ccccc1)C(=O)NCC(=O)N[C@H](C(=O)N[C@@H](CC(C)C)C(=O)N[C@H](C(=O)N[C@H](C(=O)O)C(C)C)[C@@H](C)O)[C@@H](C)CC [M9-2-1F]
- Recognition by M9-2 reactive T-cell [1]: + (+, recognized)
- recognition by the original melanoma reactive T-cells [1]: recognized

- binding affinity to HLA-A2.1 compared with the natural epitope (HLA-A2.1): higher binding affinity
SMILES: CC[C@H](C)[C@H](N)C(=O)N[C@H](C(=O)N[C@@H](CC(=O)O)C(=O)N[C@@H](CCC(N)=O)C(=O)N[C@H](C(=O)N1CCC[C@H]1C(=O)N[C@@H](Cc1ccccc1)C(=O)N[C@@H](CO)C(=O)N[C@H](C(=O)O)C(C)C)C(C)C)[C@@H](C)CC [G9-209-2I]
- Recognition by G9-209 reactive T-cell [1]: + (+, recognized)
- recognition by the original melanoma reactive T-cells [1]: recognized

- binding affinity to HLA-A2.1 compared with the natural epitope (HLA-A2.1): higher binding affinity
SMILES: CC(C)[C@H](NC(=O)[C@H](CO)NC(=O)[C@H](Cc1ccccc1)NC(=O)[C@@H]1CCCN1C(=O)[C@@H](NC(=O)[C@H](CCC(N)=O)NC(=O)[C@H](CC(=O)O)NC(=O)[C@@H](NC(=O)[C@@H](N)Cc1ccccc1)[C@@H](C)O)C(C)C)C(=O)O [G9-209-1F]
- Recognition by G9-209 reactive T-cell [1]: + (+, recognized)
- recognition by the original melanoma reactive T-cells [1]: recognized

The remaining lines, values behind:

SMILES: CC(C)[C@H](NC(=O)[C@H](CCC(N)=O)NC(=O)[C@H](Cc1c[nH]c2ccccc12)NC(=O)[C@H](Cc1ccc(O)cc1)NC(=O)[C@H](CCC(N)=O)NC(=O)CNC(=O)[C@H](Cc1c[nH]c2ccccc12)NC(=O)[C@@H](NC(=O)[C@@H](N)CCCCN)[C@@H](C)O)C(=O)O [G9154]
- % specific lysis by PBL stimulated with the peptide (T2 cells; target T2 + G9-154-2I, after 4 stimulations): 8%
- % specific lysis by PBL stimulated with the peptide (T2 cells; target T2 + G9-154, after 4 stimulations): 14%
- % specific lysis by PBL stimulated with the peptide (T2 cells; target T2, after 4 stimulations (Table 18)): 11%
- Recognition by G9-154 reactive T-cell [1]: + (+, recognized)
- % specific lysis by PBL stimulated with the peptide ([2]; after 4 stimulations (Table 18)): 5%

SMILES: CC[C@H](C)[C@H](NC(=O)CN)C(=O)NCC(=O)N[C@H](C(=O)N[C@@H](CC(C)C)C(=O)N[C@H](C(=O)N[C@H](C(=O)N[C@H](C(=O)N[C@@H](CC(C)C)C(=O)O)[C@@H](C)CC)C(C)C)[C@@H](C)O)[C@@H](C)CC [M9-3] (H-GIGILTVIL-OH)
- % specific lysis (HLA-A2.1+ T2 cell line; T2 + peptide 10 ug/ml, effector TIL 660, E:T 40:1, 4 h): 0%
- % specific lysis (HLA-A2.1+ T2 cell line; T2 + peptide 10 ug/ml, effector TIL 1074, E:T 40:1, 4 h): 10%
- % specific lysis (HLA-A2.1+ T2 cell line; T2 + peptide 10 ug/ml, effector TIL 1235, E:T 40:1, 4 h): 20%
- % specific lysis (HLA-A2.1+ T2 cell line; T2 + peptide 10 ug/ml, effector TIL clone A42, E:T 20:1, 4 h): 18%
- % specific lysis (HLA-A2.1+ T2 cell line; purified peptide 1 ug/ml, TIL 501, E:T 40:1): 5%
- % specific lysis (HLA-A2.1+ T2 cell line; purified peptide 1 ug/ml, TIL 620, E:T 40:1): 25%
- % specific lysis (HLA-A2.1+ T2 cell line; purified peptide 1 ug/ml, TIL 660, E:T 40:1): 0%
- % specific lysis (HLA-A2.1+ T2 cell line; purified peptide 1 ug/ml, TIL 1074, E:T 40:1): 1%
- % specific lysis (HLA-A2.1+ T2 cell line; purified peptide 1 ug/ml, TIL 1088, E:T 40:1): 19%
- % specific lysis (HLA-A2.1+ T2 cell line; purified peptide 1 ug/ml, TIL 1128, E:T 40:1): 0%
- % specific lysis (HLA-A2.1+ T2 cell line; purified peptide 1 ug/ml, TIL 1143, E:T 40:1): 1%
- % specific lysis (HLA-A2.1+ T2 cell line; purified peptide 1 ug/ml, TIL 1200, E:T 40:1): −2%
- % specific lysis (HLA-A2.1+ T2 cell line; purified peptide 1 ug/ml, TIL 1235, E:T 40:1): 0%
- % specific lysis (HLA-A2.1+ T2 cell line; purified peptide 1 ug/ml, TIL 1363, E:T 40:1): −2%
- % specific lysis (HLA-A2.1+ T2 cell line; purified peptide 1 ug/ml, clone A42, E:T 20:1): −4%
- recognition by either A42 or TIL1235 (HLA-A2.1+ T2 cell line; purified peptides, titration (FIG. 2)): not recognized

SMILES: CC(C)C[C@H](NC(=O)[C@@H](N)Cc1ccccc1)C(=O)N[C@@H](CC(=O)O)C(=O)N[C@@H](CCC(N)=O)C(=O)N[C@H](C(=O)N1CCC[C@H]1C(=O)N[C@@H](Cc1ccccc1)C(=O)N[C@@H](CO)C(=O)N[C@H](C(=O)O)C(C)C)C(C)C [G9-209-1F2L]
- % specific lysis by PBL stimulated with the peptide (T2 cells; target T2 + G9-209-1F2L, after 4 stimulations): 86%
- % specific lysis by PBL stimulated with the peptide (T2 cells; target T2 + G9-209, after 4 stimulations): 85%
- % specific lysis by PBL stimulated with the peptide (T2 cells; target T2, after 4 stimulations (Table 19)): 0%
- binding affinity to HLA-A2.1 compared with the natural epitope (HLA-A2.1): higher binding affinity
- Recognition by G9-209 reactive T-cell [1]: + (+, recognized)
- recognition by the original melanoma reactive T-cells [1]: recognized
- recognition and lysis of original epitopes and melanoma tumor cells (624 mel) by PBL stimulated with the peptide, compared with natural epitopes [2]: better
- % specific lysis by PBL stimulated with the peptide ([2]; after 4 stimulations (Table 19)): 63%

SMILES: CC(C)C[C@H](NC(=O)[C@@H](N)CCCCN)C(=O)N[C@@H](Cc1c[nH]c2ccccc12)C(=O)NCC(=O)N[C@@H](CCC(N)=O)C(=O)N[C@@H](Cc1ccc(O)cc1)C(=O)N[C@@H](Cc1c[nH]c2ccccc12)C(=O)N[C@@H](CCC(N)=O)C(=O)N[C@H](C(=O)O)C(C)C [G9-154-2L] (H-KLWGQYWQV-OH; N-terminus and C-terminus assumed)
- IC50 (HLA-A2.1): 2 nM
- Recognition by G9-154 reactive T-cell [1]: + (+, recognized)

SMILES: CC[C@H](C)[C@H](N)C(=O)N[C@@H](CCSC)C(=O)N[C@@H](CC(=O)O)C(=O)N[C@@H](CCC(N)=O)C(=O)N[C@H](C(=O)N1CCC[C@H]1C(=O)N[C@@H](Cc1ccccc1)C(=O)N[C@@H](CO)C(=O)N[C@H](C(=O)O)C(C)C)C(C)C [G9-209-2M]
- binding affinity to HLA-A2.1 compared with the natural epitope (HLA-A2.1): higher binding affinity
- Recognition by G9-209 reactive T-cell [1]: + (+, recognized)
- recognition by the original melanoma reactive T-cells [1]: recognized

SMILES: CSCC[C@H](NC(=O)[C@@H](N)CCCCN)C(=O)N[C@@H](Cc1c[nH]c2ccccc12)C(=O)NCC(=O)N[C@@H](CCC(N)=O)C(=O)N[C@@H](Cc1ccc(O)cc1)C(=O)N[C@@H](Cc1c[nH]c2ccccc12)C(=O)N[C@@H](CCC(N)=O)C(=O)N[C@H](C(=O)O)C(C)C [G9-154-2M] (H-KMWGQYWQV-OH; N-terminus and C-terminus assumed)
- IC50 (HLA-A2.1): 6.5 nM
- Recognition by G9-154 reactive T-cell [1]: + (+, recognized)

SMILES: CC(C)C[C@H](NC(=O)[C@@H](N)CC(C)C)C(=O)N[C@@H](Cc1c[nH]c2ccccc12)C(=O)NCC(=O)N[C@@H](CCC(N)=O)C(=O)N[C@@H](Cc1ccc(O)cc1)C(=O)N[C@@H](Cc1c[nH]c2ccccc12)C(=O)N[C@@H](CCC(N)=O)C(=O)N[C@H](C(=O)O)C(C)C [G9-154-1L2L] (H-LLWGQYWQV-OH; N-terminus and C-terminus assumed)
- IC50 (HLA-A2.1): 1.6 nM
- Recognition by G9-154 reactive T-cell [1]: + (+, recognized)
